Like-named read-outs stand apart in the source and are kept apart here.
Experiments:
PDE4 [1] = assay: Assay I: inhibition of cyclic nucleotide PDE activity (cAMP hydrolysis by PDE4); type: biochemical; conditions: guinea pig PDE4; 1 μM cAMP substrate; mean±S.E.M.; read-out: PDE4L (IC50) on PDE4 activity
Procedure: Under a protocol approved by the Animal Care and Use Committee of Taipei Medical University, five male guinea pigs (Hartley), weighing 500-600 g, are sacrificed. The lungs (15 g) or hearts (4 g) taken therefrom are chopped into small pieces and homogenized with a glass/teflon homogenizer (Glas-Col, Terre Haute, Ind., USA) in 10 volumes of cold medium (pH 6.5) containing 20 mM Bis-tris, 2 mM benzamidine, 2 mM EDTA, 50 mM sodium chloride, 0.1 mM phenylmethanesulfonyl fluoride (PMSF), and 1 mM dithiothreitol. At 4 , the homogenate is centrifuged at 170 g for 15 min, and the supernatant thereof is then re-centrifuged at 40,000 g for 30 min. […] The column is washed with two bed volumes of homogenate buffer to remove unbound material, where the resin beads therein will bind with proteins, such as PDE proteins. Proteins bound to the Q-Sepharose beads are eluted with various concentrations (0.23, 0.34, 0.44, 0.69, and 1.00 M) of NaCl dissolved in homogenate buffer (for each concentration, 40-50 mL elution buffer are applied) at a flow rate of 30 ml/h. Fractions (3 ml each) are collected, and ethylene glycol (EG) is added thereto until a final concentration of 30% (v/v). And then the samples are frozen at […].
The activities of PDE4 in the homogenate are measured with a two-step procedure according to the method of Thompson and Appleman, using cAMP with [^3H]-cAMP or cGMP with [^3H]-cGMP as substrates. The PDE enzyme prepared (25 μl) with 10 μl inhibitor or the solvents therefor is incubated for 30 min at 37 °C in a total assay buffer, where the final volume of the assay is amounted to 100 μl. In accordance with the features of the PDE isozymes, the assay buffer contains 50 mM Tris/HCl (pH 7.4), 3 mM MgCl2, 1 mM dithiothreitol, and 0.05% BSA, and optionally contains 1 μM cAMP with 0.2 μCi [^3H]-cAMP as a substrate alone or in the presence of 0.1 unit calmodulin with 10 μM CaCl2, or 5 μM cGMP, and 1 μM cGMP with 0.2 μCi [^3,H]-cGMP as another substrate alone or in the presence of 0.1 unit calmodulin with 10 μM CaCl2.
The PDE enzyme and the inhibitors (or their solvent) therefor are mixed and incubated on ice for 30 min previously, and then mixed with the assay buffer. The assay is initiated by transferring the mixture to a water bath at 37 °C. Following the other 30 min incubation, the reaction is stopped by transferring the reaction vessel to a bath of boiling water for 3 min. After cooling on ice, 20 μl of the 1 mg/ml of Crotalus atrox venom is added to the reaction mixture, and the mixture is incubated at 37 °C for 10 min. The uncatalyzed substrates, such as cAMP, [^3H]-cAMP, cGMP, or [^3H]-cGMP are removed by the addition of 500 μl of a 1-in-1 Tris-HCl (40 mM) buffer suspension of Dowex resin (1×8-200) with incubation on ice for 30 min, since the bindings of the cyclic nucleotides and the resin. Each tube is then centrifuged for 2 min at 6000 rpm (3700 g), and 100 μl of the supernatant is removed and counted by a β-counter for calculating the enzyme (PDEs) activity.
The dissociation constant of inhibitor binding (Ki) value is determined from the equation of apparent Km as a function of the inhibitor concentration (insert in A and B, respectively). The slope of the equation is equal to the value of […] (where KM is Michaelis constant). The amounts of the total proteins are calculated based on the analytical method reported by Bradford. In FIGS. 1A to 1D, all enzyme activities are shown as nmole of substrate per mg of proteins per minute (nmole/mg/min) hydrolyzed.

[2] = tested on: high affinity rolipram binding sites (HARBS) of the PDE4 (PDE4H); assay: Assay II: replacement of [3H]-rolipram bound on particulate HARBS of whole brain; parameters: species or system guinea pig; conditions: ratio of HARBS EC50 to PDE4 IC50
Procedure: (§1) The binding experiments are carried on basis of the methods of Schneider et al and Zhao et al with a small modification. Under a protocol approved by the Animal Care and Use Committee of Taipei Medical University, five male guinea pigs (Hartley), weighing 500-600 g, are anesthetized. The whole brains taken therefrom are homogenized with in 10 volumes of cold medium (pH 6.5) containing 20 mM Bis-tris, 2 mM benzamidine, 2 mM EDTA, 50 mM sodium chloride, 0.1 mM phenylmethanesulfonyl fluoride (PMSF), and 1 mM dithiothreitol. At 4[…], the homogenate is centrifuged at 170 g for 15 min for removing blood vessels and connective tissues, and the supernatant thereof is then re-centrifuged at 40,000 g for 30 min for separating the particulates from the cytosol of cells.
(§2) The final concentration of [^3H]-rolipram is 2 nM. […] After incubation, the reaction is stopped by transferring the reaction vessel to a bath of crashed ice. Then the reaction mixture is filtered through a punched glass fiber filter (Whatman GF/B) placed in a mini funnel, which is adopted to a 1.5 ml of Eppendorff's tube for collecting the filtrate in the mini centrifuge at 1000 rpm (100 g) for 10 seconds. By the same way (centrifugation), it is further washed with 0.3 ml reaction buffer each for three times. The Whatman GF/B filter is mixed with 2 ml of cocktail and counted by the β-scintillation counter (Backman, Fullerton, Calif., USA) for counting the radioactivity thereof.

[3] = target: T1, high affinity rolipram binding sites (HARBS) of the PDE4 (PDE4H); assay: as above; parameters: species or system guinea pig; conditions: guinea pig whole brain particulates, 2 nM [3H]-rolipram, mean±S.E.M., read-out: PDE4H (EC50) for replacing high-affinity [3H]-rolipram binding
T1 construct: other: guinea pig whole brain particulates; 2 nM [3H]-r; guinea pig whole brain particul
Procedure: as §1, §2

PDE4H = conditions: cited from earlier work; for PDE4H/PDE4L ratio: literature values [23-26]
PDE4 [4] = conditions: cited from earlier work

Compound	IC50 (PDE4 [1]) [µM]	PDE4H/PDE4L ratio (EC50/IC50) [2]	EC50 [3] [µM]	also measured
COc1cc(O)c2c(=O)c(OC)c(-c3ccc(OC)c(O)c3)oc2c1 [Quercetin-3,7,4′-O-trimethylether]	15.8 ± 4.4	>19	> 300	
O=c1c(O)c(-c2ccc(O)c(O)c2)oc2cc(O)cc(O)c12 [Quercetin]	9.9 ± 2.5	>30	> 300	
O=C(Nc1c(Cl)cncc1Cl)c1ccc(OC(F)F)c(OCC2CC2)c1 [roflumilast]				PDE4H/PDE4L ratio (PDE4H): 3
COc1cc(O)c2c(c1)OC(c1ccc(OC)c(OC)c1)CC2=O (stereo not drawn) [Hesperetin-7,3′-O-dimethylether (HDME), Hesperetin-7,3′-O-dimethylether]	3 ± 0.9	35.5	107 ± 39.5	
COc1c(-c2ccc(OC(C)=O)c(OC(C)=O)c2)oc2cc(OC(C)=O)cc(OC(C)=O)c2c1=O [Quercetin-3-O-methyl-5,7,3′,4′-O-tetraacetate]	3.9 ± 0.6	1	3.9 ± 1.4	
COc1ccc(C2CC(=O)c3c(O)cc(O)cc3O2)cc1O (stereo not drawn) [Hesperetin]	28.2 ± 1.1		> 300	
O=c1c(O)c(-c2cc(O)c(O)c(O)c2)oc2cc(O)cc(O)c12 [Myricetin]	39.8 ± 2.1	>7.5	> 300	
COc1cc(OC)c2c(c1)OC(c1ccc(OC)c(OC)c1)CC2=O (stereo not drawn) [Hesperetin-5,7,3′-O-trimethylether]	9.4 ± 2.9	18	171 ± 32.9	
COc1c(-c2ccc(O)c(O)c2)oc2cc(O)cc(O)c2c1=O [Qercetin-3-O-methylether (3-MQ), Qercetin-3-O-methylether]	28.5 ± 5.8	0.61	17.4 ± 4	
O=C(Nc1c(Cl)cncc1Cl)C(=O)c1cn(Cc2ccc(F)cc2)c2ccc(O)cc12 [AWD-12-281, N-(3,5-dichloro-pyrid-4-yl)-[1-(4-fluorobenzyl)-5-hydroxy-indole-3-yl]-glyo xylic acid amide]				PDE4H/PDE4L ratio (PDE4H): about 11
O=c1cc(-c2ccc(O)c(O)c2)oc2cc(O[C@@H]3O[C@H](CO)[C@@H](O)[C@H](O)[C@H]3O)cc(O)c12 [Luteolin-7-glucoside]		>7	> 300	
COc1ccc([C@]2(C#N)CC[C@@H](C(=O)O)CC2)cc1OC1CCCC1 [cilomilast]				PDE4H/PDE4L ratio (PDE4H): about 1
COc1cc(O)c2c(=O)c(-c3ccc(O)cc3)coc2c1 [Prunetin]	61.9 ± 17.3	>4.8	> 300	
COc1cc(OC)c2c(=O)c(OC)c(-c3ccc(OC)c(OC)c3)oc2c1 [Quercetin-3,5,7,3′,4′-O-petamethylether]	5.1 ± 1.4	11	56 ± 22.7	
COc1ccc(C2CC(=O)c3c(OC(C)=O)cc(OC(C)=O)cc3O2)cc1OC(C)=O (stereo not drawn) [Hesperetin-5,7,3′-O-triacetate (HTA), Hesperetin-5,7,3′-O-triacetate]	14.4 ± 1.8	>21	> 300	
COc1ccc(-c2cc(=O)c3c(O)cc(O)cc3o2)cc1O [Diosmetin]	20.2 ± 2.4			
COc1ccc(-c2coc3cc(O)cc(O)c3c2=O)cc1 [Biochanin A]	8.5 ± 0.1	>35	> 300	
CC(=O)Oc1cc(OC(C)=O)c2c(=O)c(OC(C)=O)c(-c3ccc(OC(C)=O)c(OC(C)=O)c3)oc2c1 [Quercetin-3,5,7,3′,4′-O-pentaacetate]	18.5 ± 4.6	4.48	82.8 ± 22.3	
COc1ccc(C2CNC(=O)C2)cc1OC1CCCC1 (stereo not drawn) [Rolipram, reference compound]	[…]	[…]		EC50 ([3]; reference drugs): 0.0052 ± 0.0019 µM; IC50 (PDE4 [4]; literature [23], read-out: IC50 for binding PDE4L): […]; EC50 (PDE4H; literature [23], read-out: EC50 for binding PDE4H): […]; PDE4H/PDE4L ratio (PDE4H): […]
CCCCOc1cc(CC2CNC(=O)N2)ccc1OC (stereo not drawn) [Ro 20-1724, reference compound]	8.7 ± 1.9			EC50 ([3]; reference drugs): 0.087 ± 0.029 µM
COc1cc(O)c2c(=O)c(OC)c(-c3ccc(OC)c(OC)c3)oc2c1 [Quercetin-3,7,3′,4′-O-tetramethylether]	> 100		> 300	
O=c1c(-c2ccc(O)cc2)coc2cc(O)cc(O)c12 [Genistein]	9.5 ± 1.9		47.8 ± 15.9	IC50 (PDE4 [4]; reported by Nichols and Morimoto [18], read-out: IC50 for PDE4 inhibition): 5 µM

— patent US20090036518A1, “PHARMACEUTICAL COMPOSITION CONTAINING FLAVONOIDS” (TAIPEI MEDICAL UNIVERSITY, priority 2005, published 2009)
